Laboratory results as given in paper PMC5037267, “Crystal Structure of a Group I Energy Coupling Factor Vitamin Transporter S Component in Complex with Its Cognate Substrate” (Cell Chemical Biology, 2016).
Residue numbers refer to the chain shown, from its start.

Assays:
Type in all cases: binding
YkoE [1] = target: T1, YkoE (Bacillus subtilis, UniProt O34738); assay: intrinsic Trp fluorescence quenching titration
T1 construct: isolated S component without YkoC/YkoD; N-terminal His6 tag cut by TEV; E. coli Lemo21; n-decyl-beta-D-maltopyranoside; four N-terminal residues not seen in crystal
T1 sequence (O34738 1-199 limits assumed): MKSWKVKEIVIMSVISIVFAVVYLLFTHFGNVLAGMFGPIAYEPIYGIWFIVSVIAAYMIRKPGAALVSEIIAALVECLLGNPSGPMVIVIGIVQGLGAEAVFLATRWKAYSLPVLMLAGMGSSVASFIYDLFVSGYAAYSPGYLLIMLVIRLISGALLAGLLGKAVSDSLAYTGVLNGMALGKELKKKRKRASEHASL

YkoE [2] = target: T2, YkoE (Bacillus subtilis, UniProt O34738, Y46A); assay: intrinsic Trp fluorescence quenching titration
T2 construct: isolated S component without YkoC/YkoD; N-terminal His6 tag cut by TEV; E. coli Lemo21; n-decyl-beta-D-maltopyranoside; four N-terminal residues not seen in crystal
T2 sequence (O34738 1-199 Y46A limits assumed): T1 sequence (O34738 1-199 limits assumed) with Y46A

YkoE [3] = target: T1, YkoE; assay: CD thermal melting at […] nm; details: YkoE from M9 medium plus excess thiamine; reference without added thiamine 68 °C; pH 7.1, 200 mM NaCl; 1 °C/min
YkoE [4] = target: T3, YkoE (Bacillus subtilis, UniProt O34738, E77A); assay: intrinsic Trp fluorescence quenching titration
T3 construct: isolated S component without YkoC/YkoD; N-terminal His6 tag cut by TEV; E. coli Lemo21; n-decyl-beta-D-maltopyranoside; four N-terminal residues not seen in crystal
T3 sequence (O34738 1-199 E77A limits assumed): T1 sequence (O34738 1-199 limits assumed) with E77A

YkoE [5] = target: T4, YkoE (Bacillus subtilis, UniProt O34738, D131A); assay: intrinsic Trp fluorescence quenching titration
T4 construct: isolated S component without YkoC/YkoD; N-terminal His6 tag cut by TEV; E. coli Lemo21; n-decyl-beta-D-maltopyranoside; four N-terminal residues not seen in crystal
T4 sequence (O34738 1-199 D131A limits assumed): T1 sequence (O34738 1-199 limits assumed) with D131A

YkoE [6] = target: T5, YkoE (Bacillus subtilis, UniProt O34738, Q95A); assay: intrinsic Trp fluorescence quenching titration
T5 construct: isolated S component without YkoC/YkoD; N-terminal His6 tag cut by TEV; E. coli Lemo21; n-decyl-beta-D-maltopyranoside; four N-terminal residues not seen in crystal
T5 sequence (O34738 1-199 Q95A limits assumed): T1 sequence (O34738 1-199 limits assumed) with Q95A
Description: intrinsic Trp fluorescence quenching titration on YkoE | with the Q95A mutation showing the largest effect on affinity

Work on `Cc1ncc(C[n+]2csc(CCO)c2C)c(N)n1` [thiamine] yielded a Kd (YkoE [1]) of ~4.5 nM, a Kd (YkoE [2]) of 10.3 ± 0.8 nM and a Tm (YkoE [3]) of 75 °C. It also gave a Kd (YkoE [4]) of 9.3 ± 0.6 nM, a Kd (YkoE [5]) of 9.4 ± 0.9 nM and a Kd (YkoE [6]) of 26.9 ± 1.6 nM.
